From patent US7521478B2, “Total synthesis of myriaporones” (Pharma Mar, S.A.U., priority 2002, dated 2009)
Like-named read-outs stand apart in the source and are kept apart here.

Tests used:
Format in all cases: cell-based
DU-145 = assay: Inhibition of cell growth by colorimetric SRB assay, DU-145; settings: Homo sapiens; for IC (total growth inhibition): read-out: TGI
Method in brief: (§1)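 Absorbance of solubilized bound SRB (490 nm) quantified cell growth and viability after cells were exposed to compound for 48 h. Seeding was 5×10^3 cells per well in RPMI 1640/10% FBS, with 18 h attachment beforehand. GI, TGI and LC were calculated from means of triplicate wells.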

LNCaP = assay: Inhibition of cell growth by colorimetric SRB assay, LN-caP; settings: Homo sapiens; for IC (total growth inhibition): read-out: TGI
Method in brief: as §1

IGROV = assay: Inhibition of cell growth by colorimetric SRB assay, IGROV; settings: Homo sapiens; for IC (total growth inhibition): read-out: TGI
Method in brief: as §1

IGROV-ET = assay: Inhibition of cell growth by colorimetric SRB assay, IGROV-ET; settings: Homo sapiens; for IC (total growth inhibition): read-out: TGI
Method in brief: as §1

SK-BR-3 = assay: Inhibition of cell growth by colorimetric SRB assay, SK-BR-3; settings: for CC50 / GI50: Homo sapiens; for TGI: total growth inhibition
Source text: The finality of these assays is to interrupt the growth of a “in vitro” tumor cell culture by means a continued exhibition of the cells to the sample to be testing.
Inhibition of Cell Growth by Colorimetric Assay.
A colorimetric type of assay, using sulforhodamine B (SRB) reaction has been adapted for a quantitative measurement of cell growth and viability (following the technique described by P. A. Skehan, et al., J. Natl. CancerInst. 1990, 82, 1107-1112).
This form of assay employs 96 well cell culture microplates of 9 mm diameter (T. Mosmann et al., J. of Immuological Methods 1983, 65, 55-63; G. T. Faircloth et al., J. of Tissue and Culture Methods 1988, 11, 201-205). Most of the cell lines are obtained from American Type Culture Collection (ATCC) derived from different human cancer types.
Cells are maintained in RPMI 1640 10% FBS, supplemented with 0.1 g/L penicillin and 0.1 g/L streptomycin sulfate and then incubated at 37° C., 5% CO2 and 98% humidity. For the experiments, cells were harvested from subconfluent cultures using trypsin and resuspended in fresh medium before plating.
Cells are seeded in 96 well microtiter plates, at 5×10^3 cells per well in aliquots of 195 μL medium, and they are allowed to attach to the plate surface by growing in drug free medium for 18 hours. Afterward, samples are added in aliquots of 5 μL in a ranging from 10 to 10^−8 μg/mL, dissolved in DMSO/EtOH/PBS (0.5:0.5:99). After 48 hours exposure, the antitumor effect are measured by the SRB methodology: cells are fixed by adding 50 μL of cold 50% (wt/vol) trichloroacetic acid (TCA) and incubated for 60 minutes at 4° C. Plates are washed with deionizer water and dried. One hundred μl of SRB solution (0.4% wt/vol in 1% acetic acid) is added to each microliter well and incubated for 10 minutes at room temperature. Unbound SRB is removed by washing with 1% acetic acid. Plates are air dried and bound stain is solubilized with Tris buffer. Optical densities are read on a automated spectrophotometric plate reader at a single wavelength of 490 nm.
The values for mean +/−SD of data from triplicate wells are calculated. Some parameters for cellular responses can be calculated: GI=growth inhibition, TGI=total growth inhibition (cytostatic effect) and LC=cell killing (cytotoxic effect).

SK-MEL-28 = assay: Inhibition of cell growth by colorimetric SRB assay, MEL-28; settings: Homo sapiens; for IC (total growth inhibition): read-out: TGI
Method in brief: as §1

A-549 = assay: Inhibition of cell growth by colorimetric SRB assay, A-549; settings: Homo sapiens; for IC (total growth inhibition): read-out: TGI
Method in brief: as §1

K-562 = assay: Inhibition of cell growth by colorimetric SRB assay, K-562; settings: Homo sapiens; for IC (total growth inhibition): read-out: TGI
Method in brief: as §1

PANC-1 = assay: Inhibition of cell growth by colorimetric SRB assay, PANC-1; settings: Homo sapiens; for IC (total growth inhibition): read-out: TGI
Method in brief: as §1

HT-29 = assay: Inhibition of cell growth by colorimetric SRB assay, HT-29; settings: Homo sapiens; for IC (total growth inhibition): read-out: TGI
Method in brief: as §1

LoVo = assay: Inhibition of cell growth by colorimetric SRB assay, LOVO; settings: Homo sapiens; for LC50: read-out: LC50; for IC (total growth inhibition): read-out: TGI
Method in brief: as §1

LoVo-Dox = assay: Inhibition of cell growth by colorimetric SRB assay, LOVO-DOX; settings: Homo sapiens; for LC50 (concentration for 50% cell killing): read-out: LC50; for IC (total growth inhibition): read-out: TGI
Method in brief: as §1

HeLa = assay: Inhibition of cell growth by colorimetric SRB assay, HELA; settings: Homo sapiens; for IC (total growth inhibition): read-out: TGI
Method in brief: as §1

HeLa-APL = assay: Inhibition of cell growth by colorimetric SRB assay, HELA-APL; settings: Homo sapiens
Method in brief: as §1

[1] = SK-MEL-28, MEL-28, 48 hours exposure

Compound: C=C(C(=O)[C@H](COC(C)=O)[C@H](O)C1(C)O[C@@H]1[C@@H](C)/C=C\C)[C@@H](O)CC(=O)CC (stereo partly drawn) [Compound 1]
- CC50 (DU-145; DU-145, 48 h, read-out: LC50): ≥ 25.2 µM
- GI50 (DU-145; DU-145, 48 hours exposure): 3.66 µM
- IC (total growth inhibition) (DU-145; DU-145, 48 hours exposure): 10.2 µM
- CC50 (LNCaP; 48 h, read-out: LC50): ≥ 25.2 µM
- GI50 (LNCaP; LN-caP, 48 hours exposure): 1.45 µM
- IC (total growth inhibition) (LNCaP; LN-caP, 48 hours exposure): 6.31 µM
- CC50 (IGROV; 48 h, read-out: LC50): 17.6 µM
- GI50 (IGROV; 48 hours exposure): 1.63 µM
- IC (total growth inhibition) (IGROV; 48 hours exposure): 5.67 µM
- CC50 (IGROV-ET; 48 h, read-out: LC50): 23.7 µM
- GI50 (IGROV-ET; IGROV-ET, 48 hours exposure): 3.1 µM
- IC (total growth inhibition) (IGROV-ET; IGROV-ET, 48 hours exposure): 8.58 µM
- CC50 (SK-BR-3; SK-BR-3, 48 h, read-out: LC50): 3.43 µM
- GI50 (SK-BR-3; SK-BR-3, 48 hours exposure): 0.469 µM
- TGI (SK-BR-3; SK-BR-3, 48 hours exposure): 1.11E−05 Molar
- CC50 (SK-MEL-28; SK-MEL-28, 48 h, read-out: LC50): 13.6 µM
- GI50 (SK-MEL-28; [1]): 2.72 µM
- IC (total growth inhibition) (SK-MEL-28; [1]): 6.1 µM
- CC50 (A-549; A549, 48 h, read-out: LC50): 23.5 µM
- GI50 (A-549; A549, A-549, 48 hours exposure): 1.1 µM
- IC (total growth inhibition) (A-549; A549, A-549, 48 hours exposure): 5.04 µM
- CC50 (K-562; K562, 48 h, read-out: LC50): 24.6 µM
- GI50 (K-562; K562, K-562, 48 hours exposure): 1.99 µM
- IC (total growth inhibition) (K-562; K562, K-562, 48 hours exposure): 7.36 µM
- CC50 (PANC-1; PANC-1, 48 h, read-out: LC50): 21.3 µM
- GI50 (PANC-1; PANC-1, 48 hours exposure): 3.33 µM
- IC (total growth inhibition) (PANC-1; PANC-1, 48 hours exposure): 8.4 µM
- CC50 (HT-29; HT-29, 48 h, read-out: LC50): 13.4 µM
- GI50 (HT-29; HT-29, 48 hours exposure): 1.67 µM
- IC (total growth inhibition) (HT-29; HT-29, 48 hours exposure): 5.37 µM
- LC50 (LoVo; LoVo, 48 h): 12.6 µM
- GI50 (LoVo; LOVO, 48 hours exposure): 1.62 µM
- IC (total growth inhibition) (LoVo; LOVO, 48 hours exposure): 4.87 µM
- LC50 (concentration for 50% cell killing) (LoVo-Dox; 48 h): 21.1 µM
- GI50 (LoVo-Dox; LOVO-DOX, 48 hours exposure): 3.13 µM
- IC (total growth inhibition) (LoVo-Dox; LOVO-DOX, 48 hours exposure): 8.1 µM
- CC50 (HeLa; HeLa, 48 h, read-out: LC50): 20.5 µM
- GI50 (HeLa; HELA, 48 hours exposure): 1.99 µM
- IC (total growth inhibition) (HeLa; HELA, 48 hours exposure): 6.66 µM
- GI50 (HeLa-APL; 48 h): 1.72 µM
- IC (total growth inhibition) (HeLa-APL; 48 h, read-out: TGI): 6.23 µM

Compound: C/C=C\[C@H](C)[C@H]1OC1(C)[C@@H](O[Si](C)(C)C(C)(C)C)[C@@H](CO[Si](C)(C)C(C)(C)C)C(=O)[C@H](CO[Si](C)(C)C(C)(C)C)[C@H](CC(=O)CC)O[Si](C)(C)C(C)(C)C (stereo partly drawn) [Compound 19a]
- GI50 (DU-145; DU-145, 48 hours exposure): 12.1 µM
- CC50 (DU-145; DU-145, 48 hours exposure, cell killing, read-out: LC50 (the source's name)): 12.1 µM
- IC (total growth inhibition) (DU-145; DU-145, 48 hours exposure): 12.1 µM
- GI50 (LNCaP; LN-caP, 48 hours exposure): 12.1 µM
- CC50 (LNCaP; LN-caP, 48 hours exposure, cell killing, read-out: LC50 (the source's name)): 12.1 µM
- IC (total growth inhibition) (LNCaP; LN-caP, 48 hours exposure): 12.1 µM
- GI50 (IGROV; 48 hours exposure): 12.1 µM
- CC50 (IGROV; 48 hours exposure, cell killing, read-out: LC50 (the source's name)): 12.1 µM
- IC (total growth inhibition) (IGROV; 48 hours exposure): 12.1 µM
- GI50 (IGROV-ET; IGROV-ET, 48 hours exposure): 12.1 µM
- CC50 (IGROV-ET; IGROV-ET, 48 hours exposure, cell killing, read-out: LC50 (the source's name)): 12.1 µM
- IC (total growth inhibition) (IGROV-ET; IGROV-ET, 48 hours exposure): 12.1 µM
- GI50 (SK-BR-3; SK-BR-3, 48 hours exposure): 12.1 µM
- CC50 (SK-BR-3; SK-BR-3, 48 hours exposure, cell killing, read-out: LC50 (the source's name)): 12.1 µM
- TGI (SK-BR-3; SK-BR-3, 48 hours exposure): 1.21E−05 Molar
- GI50 (SK-MEL-28; [1]): 12.1 µM
- CC50 (SK-MEL-28; SK-MEL-28, MEL-28, 48 hours exposure, cell killing, read-out: LC50 (the source's name)): 12.1 µM
- IC (total growth inhibition) (SK-MEL-28; [1]): 12.1 µM
- GI50 (A-549; A549, A-549, 48 hours exposure): 12.1 µM
- CC50 (A-549; A549, A-549, 48 hours exposure, cell killing, read-out: LC50 (the source's name)): 12.1 µM
- IC (total growth inhibition) (A-549; A549, A-549, 48 hours exposure): 12.1 µM
- GI50 (K-562; K562, K-562, 48 hours exposure): 12.1 µM
- CC50 (K-562; K562, K-562, 48 hours exposure, cell killing, read-out: LC50 (the source's name)): 12.1 µM
- IC (total growth inhibition) (K-562; K562, K-562, 48 hours exposure): 12.1 µM
- GI50 (PANC-1; PANC-1, 48 hours exposure): 12.1 µM
- CC50 (PANC-1; PANC-1, 48 hours exposure, cell killing, read-out: LC50 (the source's name)): 12.1 µM
- IC (total growth inhibition) (PANC-1; PANC-1, 48 hours exposure): 12.1 µM
- GI50 (HT-29; HT-29, 48 hours exposure): 12.1 µM
- CC50 (HT-29; HT-29, 48 hours exposure, cell killing, read-out: LC50 (the source's name)): 12.1 µM
- IC (total growth inhibition) (HT-29; HT-29, 48 hours exposure): 12.1 µM
- GI50 (LoVo; LOVO, 48 hours exposure): 12.1 µM
- LC50 (LoVo; LOVO, 48 hours exposure, cell killing): 12.1 µM
- IC (total growth inhibition) (LoVo; LOVO, 48 hours exposure): 12.1 µM
- GI50 (LoVo-Dox; LOVO-DOX, 48 hours exposure): 12.1 µM
- LC50 (concentration for 50% cell killing) (LoVo-Dox; LOVO-DOX, 48 hours exposure, cell killing): 12.1 µM
- IC (total growth inhibition) (LoVo-Dox; LOVO-DOX, 48 hours exposure): 12.1 µM
- GI50 (HeLa; HELA, 48 hours exposure): 12.1 µM
- CC50 (HeLa; HELA, 48 hours exposure, cell killing, read-out: LC50 (the source's name)): 12.1 µM
- IC (total growth inhibition) (HeLa; HELA, 48 hours exposure): 12.1 µM
- CC50 (HeLa-APL; HELA-APL, 48 hours exposure, cell killing, read-out: LC50 (the source's name)): 12.1 µM
